Test results from patent publication US20040191287A1, “Fumigation process for stored food grains” (priority 2003, published 2004).

Tested on: Tribolium castaneum
Experiment: whole plant or invertebrate
Method: Cryptolestes sp. was reared on wheat feed. S. oryzae, Cryptolestes sp. and T. castaneum cultures were maintained at 25±1° C. and 70% RH whereas R. dominica cultures were maintained at 30±1° C. and 70% RH. From the established cultures, 2-week-old adults were taken and counted into 10 cm×2.3 cm size test tubes at 50 per replicate. The mouth of the tube was closed with a cloth piece held by small rubber ring. The insects were exposed to a range of doses (10 to 100 mg/litre) of esters for 24 hours in 0.85-liter desicators at the laboratory temperature of 26±2° C. Pure grade esters including allyl acetate, butyl acetate, ethyl acetoacetate, isopropyl acetate and propyl acetate were procured from Merck India Ltd. In each desiccator a 9 cm diameter Whatman No. 1 filter circle was placed; the filter circle acted as evaporating surface for the injected liquids (esters). Required quantity of the ester was drawn from the bottles using 10, 25 or 50 micro litre liquid syringe. There were 6 replicates for each dose with equal number of replicates for untreated control. The exposure period in all cases was 24 hours. […] Insect mortality was assessed after 14 days. Corrected mortality was arrived at based on Abbott's formula (1925).

[1] = Tribolium castaneum, read-out: Mortality (%) (Mean ± SD)

C=CCOC(C)=O [allyl acetate]
mortality at 10 µg/mL [1]: 96 ± 3.7% | mortality at 20 µg/mL [1]: 100% | mortality at 30 µg/mL [1]: 100% | mortality at 50 µg/mL [1]: 100% | mortality at 100 µg/mL [1]: 100% | mortality of the adults (in vivo): 100%
